Laboratory results taken from ChEMBL document CHEMBL1144852, “Optimization of a dihydropyrrolopyrazole series of transforming growth factor-beta type I receptor kinase domain inhibitors: discovery of an orally bioavailable transforming growth factor-beta receptor type I inhibitor as antitumor agent” (J Med Chem, 2008).
pEC50, pIC50: −log10 of the molar value.

How the values were obtained:
Mus musculus [1] = experiment: Inhibition of TGFbeta type receptor 1 in human Calu6 cells xenografted mouse at 50 mg/kg, po by single point IVTI assay; type: functional, Calu-6; parameters: scale not given: the % may be the effect or the level left
Mus musculus [2] = experiment: Inhibition of TGFbeta type receptor 1 in orally dosed human Calu6 cells xenografted mouse by IVTI […] assay; type: functional, organism-based; conditions: Calu-6
TGF-beta receptor type-1 = TGF-beta receptor type-1 (Homo sapiens, UniProt P36897, T204D); experiment: Inhibition of TGFbeta type receptor 1 ALK5 (T204D) expressed in Sf9 cells
[3] = Antiproliferative activity against mink Mv1Lu-p3TP-Lux cells by luciferase reporter assay; type: functional, cell-based, Neovison vison; conditions: Neogale vison
NIH3T3 = experiment: Antiproliferative activity against mouse NIH3T3 cells by [3H]thymidine assay; type: functional, cell-based
Liver microsomes = experiment: Metabolic stability in human liver microsomes; type: ADME, Microsome; further: time not given here
[4] = Metabolic stability in rat microsomes; type: ADME, Microsome; further: time not given here
Caco-2 = experiment: Permeability from apical to basolateral side of human Caco-2 cell membrane; type: ADME, cell-based
[5] = AUC in rat at 10 mg/kg, po; type: ADME, organism-based; parameters: dose 10 mg/kg, route oral; conditions: plasma

pIC50 (TGF-beta receptor type-1)	Stability (Liver microsomes)	Stability [4]	permeability (Caco-2)	AUC [5]	SMILES	Activity (Mus musculus [1])	pEC50 (Mus musculus [2])	pIC50 [3]	pIC50 (NIH3T3)
5.92	–	–	–	–	N#Cc1ccc(Oc2ccc3c(-c4c(-c5ccccn5)nn5c4CCC5)ccnc3c2)cc1	–	–	–	–
7.07	29%	57%	27%	–	CCN(C)CCOc1ccc2c(-c3c(-c4ccccn4)nn4c3CCC4)ccnc2c1	70%	6.46	7.21	7.14
< 4.70	–	–	–	–	COc1cc(-c2c(-c3ccccn3)nn3c2CCC3)c2ccccc2n1	–	–	–	–
6.28	–	–	–	–	COC(=O)c1ccc2nccc(-c3c(-c4cccc(C)n4)nn4c3CCC4)c2c1	–	–	6.39	–
–	22%	98%	76%	–	c1ccc(-c2n[nH]cc2-c2ccnc3ccccc23)nc1	–	–	–	7.09
–	–	–	–	0.398 µg·h/mL	CN(C)CC(=O)Nc1ccc2c(-c3c(-c4ccccn4)nn4c3CCC4)ccnc2c1	–	–	–	–
< 4.70	–	–	–	–	CCSc1cc(-c2c(-c3ccccn3)nn3c2CCC3)c2ccccc2n1	–	–	< 4.70	–
7.05	–	–	–	–	Cc1cccc(-c2nn3c(c2-c2ccnc4ccc(Br)cc24)CCC3)n1	–	–	7.26	6.47
6.03	–	–	–	–	Cc1cccc(-c2nn3c(c2-c2ccnc4c(F)cccc24)CCC3)n1	–	–	6.02	5.99
5.42	–	–	–	–	COc1cc(OC)c2nccc(-c3c(-c4cccc(C)n4)nn4c3CCC4)c2c1	–	–	5.14	< 4.70
5.96	–	–	–	–	CN(C)C(=O)c1ccc(Oc2ccc3c(-c4c(-c5ccccn5)nn5c4CCC5)ccnc3c2)cc1	–	–	4.82	5.29

SMILES	pIC50 (TGF-beta receptor type-1)	Stability (Liver microsomes)	Stability [4]	permeability (Caco-2)	AUC [5]	Activity (Mus musculus [1])	pEC50 (Mus musculus [2])	pIC50 [3]	pIC50 (NIH3T3)
CN1CCN(CCOc2ccc3c(-c4c(-c5ccccn5)nn5c4CCC5)ccnc3c2)CC1	7.00	–	–	–	–	73%	6.04	7.42	7.27
CN1CCN(CCCOc2ccc3c(-c4c(-c5ccccn5)nn5c4CCC5)ccnc3c2)CC1	7.13	17%	46%	13%	–	70%	5.96	7.36	7.04
CN1CCCC1CCCOc1ccc2c(-c3c(-c4ccccn4)nn4c3CCC4)ccnc2c1 (centres undefined)	7.14	–	–	–	–	75%	6.42	7.77	7.70
